Assays:
[1] = tested on: subcutaneously implanted H69 human lung cancer; test: Ex vivo biodistribution by fiber-optic spectrofluorimetry (FOS) in tissues of mice bearing H69 tumors; conditions: for Fluorescence intensity (a.u.), Kidney / Fluorescence intensity (a.u.), Liver / Fluorescence intensity (a.u.), Lung / Fluorescence intensity (a.u.), Pancreas / Fluorescence intensity (a.u.), Skin / Fluorescence intensity (a.u.), Spleen / Fluorescence intensity (a.u.), Tumor: ex vivo, 24 hours after i.v. administration, FOS
Text: An argon ion laser (Melles Griot, 43 series) was coupled to a spectrofluorophotometer (Shimadzu, model RF-5301PC) using a bifurcated fiber bundle (Oriel, Stratford, Conn., model 77533). Laser light (488 nm) was passed via one leg of the fiber bundle, the common end tip of the bundle was fixed at a distance of 1 mm from a tissue sample, while the end tip of the second leg was mounted in front of the entrance slit of the spectrofluorophotometer. Laser irradiation from the fiber was set to 5 mW, as measured with a laser power meter (Laserstar, Ophir, Israel). An average of three recordings was used for each data point.
For control, one mouse was injected with fluorescein.
Fluorescence measurements were performed: • 1. […] Ex vivo 24 hours post injection using FOS. • 3.

[2] = tested on: subcutaneously implanted H69 human lung cancer; conditions: mouse, iv
Procedure: Balb/c nude mice xenografts inoculated subcutaneously with the human small cell lung cancer cell line, H69.
Hundred μl of each agent (1 mM stock) were dissolved in 0.5 ml of saline and injected intravenously. For control, one mouse was injected with fluorescein.
In vivo during 24 hours after agent administrations using point (˜1 mm^2 area) measurements by fiber-optic spectroscopic system (FOS). • 2. Ex vivo 24 hours post injection using FOS. • 3.

hSST-R2 = molecular target: T1, hSST-R2 (Homo sapiens, UniProt P30874); test: Inhibition of 125I-Tyr11-SRIF (SRIF-14) binding to membranes of CHO cells expressing cloned human SST-R2; conditions: Table 2; affinity for hSST-R2, cloned human receptor in CHO cells
T1 construct: expressed in transfected cells
T1 sequence (P30874 whole entry): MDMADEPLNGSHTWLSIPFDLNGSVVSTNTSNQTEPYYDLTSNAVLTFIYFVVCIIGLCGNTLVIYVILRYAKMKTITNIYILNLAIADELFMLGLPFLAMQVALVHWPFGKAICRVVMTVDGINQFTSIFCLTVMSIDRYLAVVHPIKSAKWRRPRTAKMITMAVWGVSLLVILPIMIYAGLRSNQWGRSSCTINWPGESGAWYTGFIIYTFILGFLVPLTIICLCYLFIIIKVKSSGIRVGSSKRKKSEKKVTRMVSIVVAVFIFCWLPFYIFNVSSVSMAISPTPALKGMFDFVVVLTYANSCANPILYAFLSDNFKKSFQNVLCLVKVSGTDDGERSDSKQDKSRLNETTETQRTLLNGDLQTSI
Procedure: The SST analogs were tested for their potency in inhibition of the binding of ^125I-Tyr^11-SRIF (based on the method described by Raynor et. al., Molecular Pharmacology 43: 838, 1993) to membrane preparations expressing transmembrane SST receptors (SST-R1, 2, 3, 4 or 5). The receptor preparations used for these tests were either from the cloned human receptors selectively and stably expressed in Chinese Hamster Ovary (CHO) cells or from cell lines naturally expressing the SST-Rs. Typically, cell membranes were homogenized in Tris buffer in the presence of protease inhibitors and incubated for 30-40 minutes with ^125I-Tyr^11-SRIF with different concentrations of the tested sample. The binding reactions were filtered, the filters were washed and the bound radioactivity was counted in […] after addition of scintillation solution. Non specific binding was defined as the radioactivity remaining bound in the presence of 1 μM unlabeled SRIF-14.
The receptor membrane preparations used for these tests were from the cloned human receptors selectively and stably expressed in CHO cells and the radiolabelled analog used was (3-[^125]tyrosyl^11)SRIF-14. Table 2 above describes the results of the binding assays of selected analogs to the human cloned SST-R2.
The compounds were tested at a concentration of 10 nM, for SRIF-14 displacement on hSST-R2 expressed cells.

SST-R2 and SST-R5 = conditions: cited from earlier work
hSST-R4 = hSST-R4 (Homo sapiens, UniProt P31391); conditions: cited from earlier work
Sequence of hSST-R4 (P31391 whole entry): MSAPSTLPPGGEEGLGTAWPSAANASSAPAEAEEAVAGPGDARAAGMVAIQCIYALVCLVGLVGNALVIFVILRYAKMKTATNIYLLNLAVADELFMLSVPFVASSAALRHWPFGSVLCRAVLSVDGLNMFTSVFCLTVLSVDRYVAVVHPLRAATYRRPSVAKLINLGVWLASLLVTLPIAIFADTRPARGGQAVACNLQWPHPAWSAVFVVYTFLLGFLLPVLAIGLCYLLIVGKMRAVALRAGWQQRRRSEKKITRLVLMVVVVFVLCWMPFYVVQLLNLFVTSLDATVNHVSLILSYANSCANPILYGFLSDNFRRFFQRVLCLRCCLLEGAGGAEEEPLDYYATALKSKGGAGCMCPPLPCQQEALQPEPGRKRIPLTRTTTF

Compound	Fluorescence intensity (a.u.), Kidney [1] [a.u.]	Fluorescence intensity (a.u.), Liver [1] [a.u.]	Fluorescence intensity (a.u.), Lung [1] [a.u.]	Fluorescence intensity (a.u.), Pancreas [1] [a.u.]	Fluorescence intensity (a.u.), Skin [1] [a.u.]	Fluorescence intensity (a.u.), Spleen [1] [a.u.]	Fluorescence intensity (a.u.), Tumor [1] [a.u.]	tumor fluorescence in ex vivo spectral images [2]	IC50 (hSST-R2) [nM]	fluorescence in normal organs in ex vivo spectral images [2]	tissue accumulation / specificity to the tumor in words ([1]; mouse, in vivo)	SST receptor subtype selectivity (SST-R2 and SST-R5)	affinity to hSST-R4 (hSST-R4)
C[C@@H](O)[C@@H]1NC(=O)[C@H](CCCCN)NC(=O)[C@@H](Cc2c[nH]c3ccccc23)NC(=O)[C@H](Cc2c[nH]c3ccccc23)NC(=O)[C@H](Cc2ccccc2)NC(=O)CN(C(=O)CCCNC(=O)c2ccc3c(c2)C(=O)OC32c3ccc(O)cc3Oc3cc(O)ccc32)CCSSCCN(CC(N)=O)C(=O)[C@H](Cc2ccccc2)NC1=O [Compound 48, 5- and 6-carboxyfluorescein-GABA-GlyS2*-Phe-Trp-DTrp-Lys-Thr-Phe-GlyS2*-NH2]	15 ± 6	10 ± 5	25 ± 8	16 ± 5	90 ± 20	7 ± 2	50 ± 20						
C[C@@H](O)[C@@H]1NC(=O)[C@H](CCCCN)NC(=O)[C@@H](Cc2c[nH]c3ccccc23)NC(=O)[C@H](Cc2c[nH]c3ccccc23)NC(=O)[C@H](Cc2ccccc2)NC(=O)CN(C(=O)[C@@H](Cc2ccccc2)NC(=O)CCNC(=O)c2ccc3c(c2)C(=O)OC32c3ccc(O)cc3Oc3cc(O)ccc32)CCSSCCN(CC(N)=O)C(=O)[C@H](Cc2ccccc2)NC1=O [Compound 64, 5- and 6-carboxyfluorescein-βAla-DPhe-GlyS2*-Phe-Trp-DTrp-Lys-Thr-Phe-GlyS2*-NH2]	20 ± 3	12 ± 2	40 ± 6		120 ± 18	4 ± 1	110 ± 17						
GABA*-Phe-Trp-DTrp-Lys-Thr-Phe-GlyC3*-NH2 (XFWWKTFG; not fully specified; backbone cyclized; GABA; C-terminal amide) [PTR 3173]												selective for SST-R2 and SST-R5	moderate affinity

Continued, in another order:

Fluorescence intensity (a.u.), Kidney [1] [a.u.]	Fluorescence intensity (a.u.), Liver [1] [a.u.]	Fluorescence intensity (a.u.), Lung [1] [a.u.]	Fluorescence intensity (a.u.), Pancreas [1] [a.u.]	Fluorescence intensity (a.u.), Skin [1] [a.u.]	Fluorescence intensity (a.u.), Spleen [1] [a.u.]	Fluorescence intensity (a.u.), Tumor [1] [a.u.]	tumor fluorescence in ex vivo spectral images [2]	IC50 (hSST-R2) [nM]	Compound	fluorescence in normal organs in ex vivo spectral images [2]	tissue accumulation / specificity to the tumor in words ([1]; mouse, in vivo)	SST receptor subtype selectivity (SST-R2 and SST-R5)	affinity to hSST-R4 (hSST-R4)
32 ± 5	17 ± 3	37 ± 6		120 ± 18	4 ± 1	106 ± 16	high and selective fluorescence		C[C@@H](O)[C@@H]1NC(=O)[C@H](CCCCN)NC(=O)[C@@H](Cc2c[nH]c3ccccc23)NC(=O)[C@H](Cc2c[nH]c3ccccc23)NC(=O)[C@H](Cc2ccccc2)NC(=O)CN(C(=O)[C@@H](Cc2ccccc2)NC(=O)CCNC(=S)Nc2ccc3c(c2)C(=O)OC32c3ccc(O)cc3Oc3cc(O)ccc32)CCSSCCN(CC(N)=O)C(=O)[C@H](Cc2ccccc2)NC1=O [Compound 62, 5-(aminothionyl)fluorescein-βAla-DPhe-GlyS2*-Phe-Trp-DTrp-Lys-Thr-Phe-GlyS2*-NH2]	no (lungs and kidney) or little (dermis) fluorescence			
18 ± 3	5 ± 1	27 ± 4	10 ± 2	116 ± 17	2 ± 0.3	122 ± 18			C[C@@H](O)[C@@H]1NC(=O)[C@H](CCCCN)NC(=O)[C@@H](Cc2c[nH]c3ccccc23)NC(=O)[C@H](Cc2c[nH]c3ccccc23)NC(=O)[C@H](Cc2ccccc2)NC(=O)CN(C(=O)[C@@H](Cc2ccccc2)NC(=O)CCCCNC(=S)Nc2ccc3c(c2)C(=O)OC32c3ccc(O)cc3Oc3cc(O)ccc32)CCSSCCN(CC(N)=O)C(=O)[C@H](Cc2ccccc2)NC1=O [Compound 70, 5-(aminothionyl)fluorescein-aminopentanoyl-DPhe-GlyS2*-Phe-Trp-DTrp-Lys-Thr-Phe-GlyS2*-NH2]				
23 ± 5	13 ± 3	70 ± 14	22 ± 6	65 ± 13	7 ± 1.4	626 ± 55	high and selective tumor fluorescence	1.7	C[C@@H](O)[C@@H]1NC(=O)[C@H](CCCCN)NC(=O)[C@@H](Cc2c[nH]c3ccccc23)NC(=O)[C@H](Cc2c[nH]c3ccccc23)NC(=O)[C@H](Cc2ccccc2)NC(=O)[C@@H](NC(=O)[C@@H](Cc2ccccc2)NC(=O)CCCNC(=S)Nc2ccc3c(c2)C(=O)OC32c3ccc(O)cc3Oc3cc(O)ccc32)CSSCCN(CC(N)=O)C(=O)[C@H](Cc2ccccc2)NC1=O [Compound 86, 5-(aminothionyl)fluorescein-GABA-DPhe-Cys*-Phe-Trp-DTrp-Lys-Thr-Phe-GlyS2*-NH2]	no fluorescence in normal organs	particularly high specificity to the tumor		
